Experimental data as given in patent US11932657B2, “Heterocyclic compound” (priority 2018, dated 2024).

Legend:
[1] = molecular target: T1, aryl hydrocarbon receptor (AhR) (Homo sapiens, UniProt P35869); assay: AhR reporter gene assay (aryl hydrocarbon receptor antagonist activity, DRE-Luc HepG2 cells, TCDD-stimulated luciferase); format: cell-based
T1 construct: DRE-Luc HepG2 cells subcultured in a 225 cm^2 flask; endogenous in cells; host or cells: HepG2 (ATCC), stably transfected with the reporter hCYP1A1/pGL4.27 (DRE-Luc HepG2)
T1 sequence (P35869 11-848): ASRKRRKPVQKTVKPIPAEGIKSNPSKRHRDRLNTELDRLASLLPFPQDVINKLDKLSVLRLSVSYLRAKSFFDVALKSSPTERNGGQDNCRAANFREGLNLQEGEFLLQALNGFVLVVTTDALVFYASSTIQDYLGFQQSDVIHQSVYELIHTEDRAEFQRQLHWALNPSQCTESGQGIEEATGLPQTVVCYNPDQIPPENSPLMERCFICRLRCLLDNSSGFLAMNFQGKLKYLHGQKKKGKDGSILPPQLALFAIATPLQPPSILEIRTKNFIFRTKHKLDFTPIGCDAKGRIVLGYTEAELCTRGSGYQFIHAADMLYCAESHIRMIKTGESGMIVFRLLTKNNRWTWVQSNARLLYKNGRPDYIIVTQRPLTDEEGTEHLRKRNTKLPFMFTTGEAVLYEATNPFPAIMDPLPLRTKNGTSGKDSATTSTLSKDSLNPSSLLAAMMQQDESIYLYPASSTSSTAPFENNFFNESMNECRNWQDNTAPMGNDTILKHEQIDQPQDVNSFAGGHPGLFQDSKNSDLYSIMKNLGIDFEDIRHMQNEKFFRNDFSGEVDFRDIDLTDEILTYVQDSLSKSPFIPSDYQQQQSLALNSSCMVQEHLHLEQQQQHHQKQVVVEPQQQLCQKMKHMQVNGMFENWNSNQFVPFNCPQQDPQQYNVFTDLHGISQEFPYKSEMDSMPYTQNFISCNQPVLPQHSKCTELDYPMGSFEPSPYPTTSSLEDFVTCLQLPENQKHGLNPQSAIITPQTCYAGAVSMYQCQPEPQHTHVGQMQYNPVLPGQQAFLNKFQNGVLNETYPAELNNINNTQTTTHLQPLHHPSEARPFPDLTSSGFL
Experimental: Test Example 1 (Aryl Hydrocarbon Receptor Antagonist Activity)
An expression vector, hCYP1A1/pGL4.27 was introduced into HepG2 cells (derived from American Type Culture Collection (ATCC)) that were seeded in 6-well plates (#3810-006 (Iwaki)) at 1.2×10^6 cells/well, using Lipofectamine 3000 (#100022050 (Invitrogen)). Referring to Garrion P M et al., Fundam Appl Toxicol, 30, 194 (1996), the vector hCYP1A1/pGL4.27 incorporated the human CYP1A1 promotor region including dioxin responsive element (DRE) region of the AhR binding region into the XhoI-BglII restriction enzyme site of pGL4.27 (#E8451 (Promega)). After 24 hours, medium-1 was replaced, and after 48 hours, the medium-1 containing hygromycin B (200 to 1000 μg/mL) was subjected to drug treatment. Culturing using the medium containing hygromycin B was continued for about 1 month to clone 24 clones showing drug resistance. A cell line showing high reporter activity was selected (DRE-Luc HepG2) from drug resistant lines using as an indicator luciferase activity (Dual-Glo Luciferase substrate, #E297A (Promega)) relative to an AhR agonist, 2,3,7,8-tetrachlorodibenzo-p-dioxin (TCDD) (#ED-901-B (CIL.)).
DRE-Luc HepG2 cells subcultured in a 225 cm^2 flask (#11-0005 (Iwaki)) were washed with PBS (#1419-144 (Gibco), Lot: 1896207), and thereto was added 8 mL of Trypsin-EDTA (0.05%) (#25300-054 (Gibco)). Thereafter, an excessive liquid was removed from the mixture, and the cells were stood at room temperature for 5 minutes. Thereto was added 10 mL of medium-2, the cells were recovered through a cell strainer (#352350 (Falcon), 70 μm), and the number of cells were then counted using a hemocytometer. A cell suspension was prepared at 3×10^5 cells/mL, 100 μL/well of the cell suspension was seeded into a 96-well white plate (#136101, F96 Microwell (Nunc)), and the cells were then cultured in a CO2 incubator (5% CO2, 37° C.). After 24 hours, the medium was aspirated, and thereto was added 100 μL of an assay medium solution including the compound of the present invention, and the cells were cultured in the CO2 incubator (5% CO2, 37° C.). After 24 hours, 11 μL of an assay medium solution including 5×10^−10 M TCDD (#ED-901-B (CIL.)) was added thereto and the cells were cultured in the CO2 incubator (5% CO2, 37° C.). After 24 hours, 50 μL of a reaction substrate (#E253B, Steady-Glo Luciferase substrate (Promega)) for Firefly Luciferase enzyme reaction was added to each well, and after 5 minute-shaking, the light emission intensity was measured with Wallac ARVO 1420sx (PerkinElmer).

[2] = tested on: immortalized megakaryocyte line (SeV2-MKCL); assay: Platelet production: static culturing of immortalized megakaryocyte line; format: cell-based; settings: compound final concentration 0.1 μM, static culturing 6 to 7 days, control (DMSO) set to 1; platelets = CD41, CD42b and CD42a-positive cells
Experimental: Test Example 2 (Platelet Production: Static Culturing)
The immortalized megakaryocyte line (SeV2-MKCL) obtained according to the method described in WO 2016/204256 was washed twice with D-PBS(−) and then cultured in medium not containing doxycycline to terminate forced expression. Culturing was implemented by seeding the cells at 1 mL/well in a 24-well plate (#662160 (Greiner Rio-One)) at a seeding density of 1×10^5 cells/mL followed by static culturing in the medium indicated below.
The medium was obtained by adding the following components to IMDM serving as the basal medium (concentrations indicate final concentrations).
Culturing was implemented under conditions of 37° C. and 5% CO2. At the same time, the compound of the present invention (final concentration 0.1 μM) or DMSO (control) was added and cultured for 6 to 7 days. Thereafter, the number of platelets (CD41, CD42b, and CD42a-positive cells) was measured. The measurement method was as shown below. The same procedure was performed with the control.
A portion of the culture supernatant was harvested 6 to 7 days after culturing to terminate gene expression, and suspended with the following antibodies to stain them. eFluor 450-labeled anti-CD42a antibody (#48-0428-42 (eBioscience)) PE-labeled anti-CD42b antibody (#303906 (BioLegend)) APC-labeled anti-CD41 antibody (#303710 (BioLegend)) The number of platelets was counted using FACSVerse manufactured by BD 30 minutes after the stain reaction. In the measurement of the number of platelets, the number of cells was corrected using Flow-count beads (#7547053 (Beckman Coulter)).
The number of platelets produced from one megakaryocyte cell was calculated based on the number of platelets in the sample obtained by the FACS measurement, and the result was defined as platelet production efficiency (PLT/MK) and used for evaluation of drug efficacy of the compound. In addition, the specific activity at the time when the platelet production efficiency of the control was set to 1 was indicated as fold increase.

Row | SMILES | IC50 [1] [nM] | Static (vs veh): fold increase of platelet production efficiency (PLT/MK) [2]
1 | CC1(C)COc2nc3c(NCCc4ccc(O)c(-c5ccccc5)c4)nc(-c4cncc(F)c4)nc3n21 [Example 1, 4-[2-[[2-(5-fluoropyridin-3-yl)-8,8-dimethyl-7H-purino[8,9-b][1,3]oxazol-4-yl]amino]ethyl]J-2-phenylphenol] | 4.4 | 6.5
2 | CC1(C)COc2nc3c(NCCc4ccc(O)c(-c5ccccc5F)c4)nc(-c4cncc(F)c4)nc3n21 [Example 2, 2-(2-fluorophenyl)-4-[2-[[2-(5-fluoropyridin-3-yl)-8,8-dimethyl-7H-purino[8,9-b][1,3]oxazol-4-yl]amino]ethyl]phenol] | 9.5 | 5.6
3 | CC1(C)COc2nc3c(NCCc4ccc(O)c(-c5cccc(F)c5)c4)nc(-c4cncc(F)c4)nc3n21 [Example 3] | 2.9 | 6.8
4 | CC1(C)COc2nc3c(NCCc4ccc(O)c(-c5ccc(F)cc5)c4)nc(-c4cncc(F)c4)nc3n21 [Example 4] | 5 | 6.7
5 | CC1(C)COc2nc3c(NCCc4ccc(O)c(-c5ccccc5Cl)c4)nc(-c4cncc(F)c4)nc3n21 [Example 5] | 36 | 5.1
6 | CC1(C)COc2nc3c(NCCc4ccc(O)c(-c5cccc(Cl)c5)c4)nc(-c4cncc(F)c4)nc3n21 [Example 6] | 10 | 3.7
7 | CC1(C)COc2nc3c(NCCc4ccc(O)c(-c5ccc(Cl)cc5)c4)nc(-c4cncc(F)c4)nc3n21 [Example 7] | 9.1 | 7.3
8 | CC1(C)CSc2nc3c(NCCc4ccc(O)c(-c5ccccc5F)c4)nc(-c4cncc(F)c4)nc3n21 [Example 8] | 0.11 | 5.1
9 | CC1(C)CSc2nc3c(NCCc4ccc(O)c(-c5cccc(F)c5)c4)nc(-c4cncc(F)c4)nc3n21 [Example 9] | 0.32 | 4.9
10 | CC1(C)COc2nc3c(NCCc4ccc(O)c(-c5cc(F)ccc5F)c4)nc(-c4cncc(F)c4)nc3n21 [Example 10] | 11 | 5.5
11 | CC1(C)COc2nc3c(NCCc4ccc(O)c(-c5cccc(F)c5F)c4)nc(-c4cncc(F)c4)nc3n21 [Example 11] | 6.4 | 8.5
12 | CC1(C)COc2nc3c(NCCc4ccc(O)c(-c5cc(F)cc(F)c5)c4)nc(-c4cncc(F)c4)nc3n21 [Example 12] | 12 | 7.6
13 | COc1cccc(-c2cc(CCNc3nc(-c4cncc(F)c4)nc4c3nc3n4C(C)(C)CO3)ccc2O)c1 [Example 13, 4-[2-[[2-(5-fluoropyridin-3-yl)-8,8-dimethyl-7H-purino[8,9-b][1,3]oxazol-4-yl]amino]ethyl]-2-(3-methoxyphenyl)phenol] | 29 | 4.7
14 | Cc1cccc(-c2cc(CCNc3nc(-c4cncc(F)c4)nc4c3nc3n4C(C)(C)CO3)ccc2O)c1 [Example 14] | 11 | 7.9
15 | CCc1cccc(-c2cc(CCNc3nc(-c4cncc(F)c4)nc4c3nc3n4C(C)(C)CO3)ccc2O)c1 [Example 15] | 5.5 | 11
16 | CC1(C)COc2nc3c(NCCc4ccc(O)c(-c5cccc(C(F)(F)F)c5)c4)nc(-c4cncc(F)c4)nc3n21 [Example 16] | 3.9 | 10
17 | CC1(C)COc2nc3c(NCCc4ccc(O)c(-c5cccc(C#N)c5)c4)nc(-c4cncc(F)c4)nc3n21 [Example 17, 3-[5-[2-[[2-(5-fluoropyridin-3-yl)-8,8-dimethyl-7H-purino[8,9-b][1,3]oxazol-4-yl]amino]ethyl]-2-hydroxyphenyl]benzonitrile] | 2.3 | 7.8
18 | CC1(C)COc2nc3c(NCCc4ccc(O)c(-c5ccc(C#N)cc5)c4)nc(-c4cncc(F)c4)nc3n21 [Example 18] | 6.9 | 7.3
19 | CC1(C)C[S+]([O-])c2nc3c(NCCc4ccc(O)c(-c5ccccc5F)c4)nc(-c4cncc(F)c4)nc3n21 (stereo not shown) [Example 20] | 0.058 | 6.5
20 | CC1(C)C[S+]([O-])c2nc3c(NCCc4ccc(O)c(-c5cccc(F)c5)c4)nc(-c4cncc(F)c4)nc3n21 (stereo not shown) [Example 21] | 0.033 | 4.7
21 | CC1(C)CSc2nc3c(NCCc4ccc(O)c(-c5cncc(F)c5)c4)nc(-c4cncc(F)c4)nc3n21 [Example 70] | 4.6 | –
22 | CC1(C)CSc2nc3c(NCCc4ccc(O)cc4)nc(-c4cncc(F)c4)nc3n21 [Example 97] | 19 | –
23 | Oc1ccc(CCNc2nc(-c3cncc(F)c3)nc3c2nc2n3CCS2)cc1-c1ccccc1F [Example 142] | 0.89 | –
24 | Oc1ccc(CCNc2nc(-c3cncc(F)c3)nc3c2nc2n3CCCCS2)cc1-c1ccccc1F [Example 143] | 0.6 | –
25 | Oc1ccc(CCNc2nc(-c3cncc(F)c3)nc3c2nc2n3CCCO2)cc1-c1ccccc1F [Example 144] | 4.3 | –
26 | Oc1ccc(CCNc2nc(-c3cncc(F)c3)nc3c2nc2n3CCCS2)cc1-c1ccccc1F [Example 145] | 1.3 | –
